Where a name gives a salt, the structure may show the parent alone.
How the values were obtained:
[1] = system: human peripheral blood T cells; assay: ELISA of IL-17A in supernatants of human T cells stimulated with anti-CD3/CD28; type: cell-based; conditions: 1 μM or 5 μM for 3 days
Description: Means±SD are shown, (b) ELISA of IL-17A in supernatants of human T cells. T cells were stimulated with anti-CD3/CD28 and treated with C1 (verteporfin) (1 μM or 5 μM) or C2 (1 μM or 5 μM) for 3 days. HC, healthy control; SLE, systemic lupus erythematosus; RA, rheumatoid arthritis; AS, ankylosing spondylitis; PsA, psoriatic arthritis; PSS, primary Sjögren's syndrome. Means±SD are shown. C1 denotes verteporfin; C2 denotes alexidine dihydrochloride.
We further studied whether IL-17A production is abolished by the inhibitors of GLK-induced AhR-RORγt complex in human and murine T cells. We first tested the inhibitor experiment using murine T cells stimulated with TCR signaling (anti-CD3 plus anti-CD28 antibodies). […] Next, we studied the blocking effect of IL-17 production by the treatment of C1 (verteporfin) or C2 (alexidine dihydrochloride) using human peripheral blood T cells. […] Taken together, GLK inhibitors (verteporfin and alexidine dihydrochloride) inhibit GLK-induced AhR-RORγt complex and IL-17A production in human autoimmune patient T cells, as well as the disease severity of autoimmune animal models. Thus, GLK, GLK signaling, or GLK-induced AhR-RORγt complex can be a promising therapeutic target for autoimmune diseases.

EAE in wild-type mice = assay: Experimental autoimmune encephalomyelitis (EAE) induction in wild-type mice; type: in vivo, mouse; conditions: C1 0.556 nmole/g, C2 0.085 nmole/g; for serum IL-17A levels in EAE: day 16
Source text: (A to C) Effect of the GLK inhibitor C1 (verteporfin) administration (0.556 nmole/g every 3 days for 30 days) on serum IL-17A and autoantibodies in Lck-GLK Tg mice. (B) ELISA of indicated serum cytokines in Lck-GLK Tg mice treated with C1 (verteporfin) or PBS. (C) ELISA of serum autoantibodies in Lck-GLK Tg mice treated with C1 (verteporfin) or PBS. Means±SEM are shown. (D) Experimental autoimmune encephalomyelitis (EAE) induction in wild-type mice treated with PBS, or the GLK inhibitor C1 (verteporfin) and C2. Clinical scores are presented on a scale of 1 to 5 (left panel). ELISA of IL-17A in the sera from MOG-immunized mice at day 16 (right panel). (E) Collagen-induced arthritis (CIA) induction in wild-type mice treated with the GLK inhibitor C1 (verteporfin) or PBS. Clinical scores are presented on a scale of 1 to 16 (left panel). ELISA of IL-17A in the sera from collagen-immunized mice at day 28. Means±SEM are shown. *, P value<0.05; **, P value<0.01; ***, P value<0.001 (two-tailed Student's […]). C1 denotes verteporfin; C2 denotes alexidine dihydrochloride.
Moreover, overproduction of autoantibodies in Lck-GLK Tg mice were also abolished by C1 (verteporfin) treatment (FIG. 10C). […] To further verify that the GLK inhibitors also works in IL-17A-mediated animal models, we challenged wild-type mice with C1 (verteporfin) or C2 (alexidine dihydrochloride) during EAE and CIA induction.

GLK−IQGAP1 interaction = molecular target: T1, GLK−IQGAP1 interaction (Homo sapiens, UniProt Q8IVH8); assay: FRET assay of HEK293T cells with CFP- and YFP-fused GLK and IQGAP1; type: cell-based
T1 construct: expressed in transfected cells; host or cells: HEK293T
T1 sequence (Q8IVH8 whole entry, the tested form may be a part): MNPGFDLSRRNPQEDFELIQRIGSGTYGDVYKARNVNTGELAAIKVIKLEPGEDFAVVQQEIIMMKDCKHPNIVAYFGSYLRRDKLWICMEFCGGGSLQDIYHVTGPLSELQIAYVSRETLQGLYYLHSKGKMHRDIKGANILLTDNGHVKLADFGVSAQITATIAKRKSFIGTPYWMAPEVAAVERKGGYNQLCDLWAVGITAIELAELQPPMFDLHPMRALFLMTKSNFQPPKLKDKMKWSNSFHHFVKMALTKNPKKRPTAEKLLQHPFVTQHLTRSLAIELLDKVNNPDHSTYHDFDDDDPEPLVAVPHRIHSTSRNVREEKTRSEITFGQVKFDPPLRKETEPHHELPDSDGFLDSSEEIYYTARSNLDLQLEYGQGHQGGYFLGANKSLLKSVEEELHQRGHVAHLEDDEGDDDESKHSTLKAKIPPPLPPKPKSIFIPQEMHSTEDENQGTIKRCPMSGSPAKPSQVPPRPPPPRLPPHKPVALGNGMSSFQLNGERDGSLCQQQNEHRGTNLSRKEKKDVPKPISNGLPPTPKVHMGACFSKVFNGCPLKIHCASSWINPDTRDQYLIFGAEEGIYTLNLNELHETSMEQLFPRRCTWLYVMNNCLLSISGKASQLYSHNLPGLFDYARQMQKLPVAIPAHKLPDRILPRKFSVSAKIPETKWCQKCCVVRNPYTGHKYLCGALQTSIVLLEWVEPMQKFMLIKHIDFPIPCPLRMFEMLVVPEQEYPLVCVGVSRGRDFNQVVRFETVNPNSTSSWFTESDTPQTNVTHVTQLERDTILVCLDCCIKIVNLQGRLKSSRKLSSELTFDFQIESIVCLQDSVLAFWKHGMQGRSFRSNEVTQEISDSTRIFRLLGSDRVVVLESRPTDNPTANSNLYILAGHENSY
Description: (A) Silver-stained gel of anti-Flag immunoprecipitates from HEK293T cells transfected with empty vector or Flag-tagged GLK in the presence or absence of the tyrosine phosphatase inhibitor pervanadate (25 μM). Arrows indicate the positions of GLK or GLK-interacting proteins. (B) Four pervanadate-induced tyrosine phosphorylation residues of GLK proteins were listed. (C and D) Co-immunoprecipitation of anti-Flag (C) or anti-Myc (D) immunocomplexes from lysates of HEK293T cells transfected with Flag-tagged GLK, Myc-tagged IQGAP1, or both plasmids. The whole-cell lysate immunoblots before immunoprecipitation (Pre-IP) are shown at the bottom of each panel. β-Tubulin was used as the loading control. (E) Co-immunoprecipitation of anti-Flag immunocomplexes from lysates of HEK293T cells transfected with either Flag-tagged GLK or Flag-tagged GLK mutant (Y366F, Y379F, Y574F, or Y735F). […]
FRET signal in live cells was detected by EnVision 2104 Multilabel Plate Reader (Perkin Elmer). The reaction was excited by light passing through a 430-nm filter (with 8 nm bandwidth), and the intensity of emitted fluorescence passing through a 530-nm filter (with 8 nm bandwidth) was recorded. If the protein-protein pair is in close proximity (1-10 nm), a 530-nm signal will be detected. […]

| Structure (SMILES) | IL-17A production, anti-CD3/CD28-stimulated T cells of autoimmune disease patients [1] | disease severity (clinical score) in EAE (EAE in wild-type mice) | serum IL-17A levels in EAE (EAE in wild-type mice) | FRET signals of GLK−IQGAP1 interaction (GLK−IQGAP1 interaction) | TCR-induced IL-17A production, T cells from healthy controls [1] |
| --- | --- | --- | --- | --- | --- |
| CCCCC(CC)CNC(=N)NC(=N)NCCCCCCNC(=N)NC(=N)NCC(CC)CCCC (stereo not drawn) [C2, alexidine dihydrochloride] | drastically inhibited | significantly suppressed | significantly suppressed | inhibited | – |
| C=Cc1c(C)c2cc3nc(cc4[nH]c(cc5nc(cc1[nH]2)C(C)=C5CCC(=O)O)c(CCC(=O)OC)c4C)[C@@]1(C)C3=CC=C(C(=O)OC)[C@H]1C(=O)OC [C1, verteporfin] | drastically inhibited | significantly suppressed | significantly suppressed | inhibited | significantly reduced |

— patent publication US11360080B2, “AhR-ROR-γt complex as a biomarker and therapeutic target for autoimmune disease and IL-17A-associated disease” (NATIONAL HEALTH RESEARCH INSTITUTES, priority 2018, dated 2022)
